Source: article PMC5931690, “SmSP2: A serine protease secreted by the blood fluke pathogen Schistosoma mansoni with anti-hemostatic properties” (PLoS Neglected Tropical Diseases, 2018)
*1 amine or outer side, *2 acyl side, *3 side chain or, on linkers, in order; H or OH if unused. Where a SMILES comes first, the peptide text is derived from it. CO = O=C([*:1])[*:2]

Target: T1, rSmSP2 (SmSP2, serine protease 2; recombinant protease domain) (Schistosoma mansoni, UniProt V5UMR3)
T1 construct: gene SP2; about 28 kDa on SDS-PAGE, active form
T1 sequence (V5UMR3 entry or part of it): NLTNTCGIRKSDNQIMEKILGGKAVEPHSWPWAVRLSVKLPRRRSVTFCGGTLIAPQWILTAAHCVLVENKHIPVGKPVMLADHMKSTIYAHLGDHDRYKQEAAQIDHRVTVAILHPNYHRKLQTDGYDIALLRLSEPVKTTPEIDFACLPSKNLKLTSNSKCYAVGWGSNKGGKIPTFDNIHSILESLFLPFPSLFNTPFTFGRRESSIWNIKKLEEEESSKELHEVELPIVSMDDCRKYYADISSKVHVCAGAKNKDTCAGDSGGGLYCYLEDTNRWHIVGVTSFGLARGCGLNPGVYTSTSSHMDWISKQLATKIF
Assay: fluorogenic kinetic assay, residual P-F-R-AMC hydrolysis
Assay type: biochemical
Description: fluorogenic kinetic assay, residual P-F-R-AMC hydrolysis on rSmSP2 (SmSP2, serine protease 2; recombinant protease domain)

O=c1oc(Cl)c(Cl)c2ccccc12
inhibition at 100 µM (read-out: Inhibition (%)^c): 71.4 ± 3.3%

NCCc1ccc(S(=O)(=O)F)cc1 [Pefabloc SC]
percent inhibition (1000 µM, 50 μM P-F-R-AMC, 0.1 M Tris-HCl pH 8.0, 37 °C, 10 min preincubation, covalent): 100%

CC(=O)N[C@@H](CC(C)C)C(=O)N[C@@H](CC(C)C)C(=O)N[C@H](C=O)CCCNC(=N)N [Leupeptin, N-acetyl-L-leucyl-L-leucyl-L-argininal]
inhibition at 20 µM (read-out: Inhibition (%)^c): 100%

CC(C)[C@H](NC(=O)[C@H](CCCNC(=N)N)NC(=O)N[C@@H](Cc1ccccc1)C(=O)O)C(=O)N[C@H](C=O)CCCNC(=N)N [Antipain] ({Phe-CO}-Arg-Val-Arg-aldehyde)
inhibition at 20 µM (read-out: Inhibition (%)^c): 100%

N=C(N)c1ccccc1 [Benzamidine]
inhibition at 1000 µM (read-out: Concentration): 100%
